Assay results published in ChEMBL document CHEMBL4507301 (2021).

Tests used:
[1] = test system: Tyrosine-protein kinase ABL1 (Homo sapiens), P00519 [M351T]; settings: Compound concentration 1000.0 nM
[2] = biological target: Bone morphogenetic protein receptor type-1A (Homo sapiens) (UniProt P36894); settings: Compound concentration 1000.0 nM
[3] = biological target: Mitotic checkpoint serine/threonine-protein kinase BUB1 (Homo sapiens) (UniProt O43683); settings: Compound concentration 1000.0 nM
[4] = biological target: Calcium/calmodulin-dependent protein kinase type 1D (Homo sapiens) (UniProt Q8IU85); settings: Compound concentration 1000.0 nM
[5] = biological target: Serine/threonine-protein kinase Chk1 (Homo sapiens) (UniProt O14757); settings: Compound concentration 1000.0 nM
[6] = biological target: Serine/threonine-protein kinase Chk2 (Homo sapiens) (UniProt O96017); settings: Compound concentration 1000.0 nM
[7] = biological target: Death-associated protein kinase 3 (Homo sapiens) (UniProt O43293); settings: Compound concentration 1000.0 nM
[8] = biological target: Epidermal growth factor receptor (Homo sapiens) (UniProt P00533); settings: Compound concentration 1000.0 nM
[9] = test system: Epidermal growth factor receptor (Homo sapiens), P00533 [L861Q]; settings: Compound concentration 1000.0 nM
[10] = biological target: Ephrin type-B receptor 6 (Homo sapiens) (UniProt O15197); settings: Compound concentration 1000.0 nM
[11] = biological target: Mitogen-activated protein kinase 3 (Homo sapiens) (UniProt P27361); settings: Compound concentration 1000.0 nM
[12] = biological target: Mitogen-activated protein kinase 15 (Homo sapiens) (UniProt Q8TD08); settings: Compound concentration 1000.0 nM
[13] = biological target: Tyrosine-protein kinase Fer (Homo sapiens) (UniProt P16591); settings: Compound concentration 1000.0 nM
[14] = biological target: Fibroblast growth factor receptor 4 (Homo sapiens) (UniProt P22455); settings: Compound concentration 1000.0 nM
[15] = biological target: Vascular endothelial growth factor receptor 3 (Homo sapiens) (UniProt P35916); settings: Compound concentration 1000.0 nM
[16] = biological target: Hormonally up-regulated neu tumor-associated kinase (Homo sapiens) (UniProt P57058); settings: Compound concentration 1000.0 nM
[17] = biological target: Insulin receptor (Homo sapiens) (UniProt P06213); settings: Compound concentration 1000.0 nM
[18] = biological target: Interleukin-1 receptor-associated kinase 4 (Homo sapiens) (UniProt Q9NWZ3); settings: Compound concentration 1000.0 nM
[19] = test system: Mast/stem cell growth factor receptor Kit (Homo sapiens), P10721 [D816H]; settings: Compound concentration 1000.0 nM
[20] = biological target: Serine/threonine-protein kinase LATS2 (Homo sapiens) (UniProt Q9NRM7); settings: Compound concentration 1000.0 nM
[21] = biological target: MAP kinase-interacting serine/threonine-protein kinase 2 (Homo sapiens) (UniProt Q9HBH9); settings: Compound concentration 1000.0 nM
[22] = test system: Phosphatidylinositol 4,5-bisphosphate 3-kinase catalytic subunit alpha isoform (Homo sapiens), P42336 [M1043I]; settings: Compound concentration 1000.0 nM
[23] = biological target: Phosphatidylinositol 4,5-bisphosphate 3-kinase catalytic subunit gamma isoform (Homo sapiens) (UniProt P48736); settings: Compound concentration 1000.0 nM
[24] = biological target: Serine/threonine-protein kinase pim-1 (Homo sapiens) (UniProt P11309); settings: Compound concentration 1000.0 nM
[25] = biological target: Protein kinase C eta type (Homo sapiens) (UniProt P24723); settings: Compound concentration 1000.0 nM
[26] = biological target: Receptor-interacting serine/threonine-protein kinase 1 (Homo sapiens) (UniProt Q13546); settings: Compound concentration 1000.0 nM
[27] = biological target: Receptor-interacting serine/threonine-protein kinase 4 (Homo sapiens) (UniProt P57078); settings: Compound concentration 1000.0 nM
[28] = biological target: Ribosomal protein S6 kinase alpha-5 (Homo sapiens) (UniProt O75582); settings: Compound concentration 1000.0 nM
[29] = biological target: Ribosomal protein S6 kinase alpha-6 (Homo sapiens) (UniProt Q9UK32); settings: Compound concentration 1000.0 nM
[30] = biological target: Serine/threonine-protein kinase Sgk1 (Homo sapiens) (UniProt O00141); settings: Compound concentration 1000.0 nM
[31] = biological target: SNF-related serine/threonine-protein kinase (Homo sapiens) (UniProt Q9NRH2); settings: Compound concentration 1000.0 nM
[32] = biological target: Dual specificity testis-specific protein kinase 1 (Homo sapiens) (UniProt Q15569); settings: Compound concentration 1000.0 nM
[33] = biological target: 5-hydroxytryptamine receptor 7 (Homo sapiens) (UniProt P34969); settings: Compound concentration 10.0 uM
[34] = biological target: Sodium-dependent noradrenaline transporter (Homo sapiens) (UniProt P23975); settings: Compound concentration 10.0 uM
[35] = biological target: Kappa-type opioid receptor (Homo sapiens) (UniProt P41145); settings: Compound concentration 10.0 uM
[36] = biological target: GABA-A receptor; anion channel (Rattus norvegicus) (UniProt O09028+P15431+P18506+P18508+P19969+P20236+P23574+P23576+P28471+P28473+P30191+P62813+P63079+P63138+Q91ZM7+Q9ES14); settings: Compound concentration 10.0 uM
[37] = biological target: T1, Alpha-2C adrenergic receptor (Homo sapiens) (UniProt P18825); settings: Compound concentration 10.0 uM
T1 sequence (whole entry): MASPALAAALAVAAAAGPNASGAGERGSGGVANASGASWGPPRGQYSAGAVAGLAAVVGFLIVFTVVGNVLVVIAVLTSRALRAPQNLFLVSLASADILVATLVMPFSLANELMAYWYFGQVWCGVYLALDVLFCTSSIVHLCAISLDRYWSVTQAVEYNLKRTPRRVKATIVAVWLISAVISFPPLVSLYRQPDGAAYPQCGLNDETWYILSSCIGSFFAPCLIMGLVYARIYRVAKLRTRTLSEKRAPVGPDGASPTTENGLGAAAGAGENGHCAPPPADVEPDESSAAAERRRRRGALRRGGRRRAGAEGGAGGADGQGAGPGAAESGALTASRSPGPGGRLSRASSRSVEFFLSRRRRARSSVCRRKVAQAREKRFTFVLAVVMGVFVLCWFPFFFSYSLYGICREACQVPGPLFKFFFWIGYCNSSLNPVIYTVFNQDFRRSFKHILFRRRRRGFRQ

Sequence of Fibroblast growth factor receptor 4 (Homo sapiens) (P22455 22-802 limits assumed): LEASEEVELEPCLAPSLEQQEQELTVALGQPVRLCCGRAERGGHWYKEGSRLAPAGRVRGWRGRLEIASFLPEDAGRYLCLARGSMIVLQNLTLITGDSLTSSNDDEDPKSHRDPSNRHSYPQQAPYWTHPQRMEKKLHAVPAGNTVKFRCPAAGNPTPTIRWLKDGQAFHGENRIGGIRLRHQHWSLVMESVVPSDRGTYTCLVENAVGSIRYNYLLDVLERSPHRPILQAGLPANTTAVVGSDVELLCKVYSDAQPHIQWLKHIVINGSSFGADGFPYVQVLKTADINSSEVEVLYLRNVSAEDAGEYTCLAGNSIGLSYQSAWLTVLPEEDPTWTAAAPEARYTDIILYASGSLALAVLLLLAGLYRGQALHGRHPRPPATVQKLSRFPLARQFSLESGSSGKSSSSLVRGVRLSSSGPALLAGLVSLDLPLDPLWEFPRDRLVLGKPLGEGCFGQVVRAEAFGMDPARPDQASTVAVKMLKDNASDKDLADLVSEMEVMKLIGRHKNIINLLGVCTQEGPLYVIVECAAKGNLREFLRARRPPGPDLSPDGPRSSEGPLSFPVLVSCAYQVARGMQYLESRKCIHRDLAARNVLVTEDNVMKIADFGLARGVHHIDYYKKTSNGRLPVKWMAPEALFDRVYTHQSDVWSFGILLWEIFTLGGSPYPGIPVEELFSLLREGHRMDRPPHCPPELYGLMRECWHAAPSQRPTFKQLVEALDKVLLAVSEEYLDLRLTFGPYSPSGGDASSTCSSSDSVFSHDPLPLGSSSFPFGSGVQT
Sequence of Mitogen-activated protein kinase 15 (Homo sapiens) (Q8TD08 whole entry): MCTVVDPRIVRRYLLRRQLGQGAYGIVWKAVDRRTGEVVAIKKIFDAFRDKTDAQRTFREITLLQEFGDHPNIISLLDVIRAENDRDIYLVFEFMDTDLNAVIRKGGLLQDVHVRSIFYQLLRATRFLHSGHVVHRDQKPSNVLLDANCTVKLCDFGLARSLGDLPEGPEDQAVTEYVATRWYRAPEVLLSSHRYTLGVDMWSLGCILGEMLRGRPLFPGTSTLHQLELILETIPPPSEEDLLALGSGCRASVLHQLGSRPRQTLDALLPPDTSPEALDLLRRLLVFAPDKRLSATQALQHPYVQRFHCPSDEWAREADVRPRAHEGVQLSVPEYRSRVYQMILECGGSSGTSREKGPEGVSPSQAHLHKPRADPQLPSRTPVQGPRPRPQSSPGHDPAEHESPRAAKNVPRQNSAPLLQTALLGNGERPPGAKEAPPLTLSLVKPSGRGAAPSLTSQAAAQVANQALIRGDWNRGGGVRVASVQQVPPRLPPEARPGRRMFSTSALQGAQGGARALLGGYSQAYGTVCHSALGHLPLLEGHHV
Sequence of Phosphatidylinositol 4,5-bisphosphate 3-kinase catalytic subunit gamma isoform (Homo sapiens) (P48736 whole entry, looked up, canonical isoform): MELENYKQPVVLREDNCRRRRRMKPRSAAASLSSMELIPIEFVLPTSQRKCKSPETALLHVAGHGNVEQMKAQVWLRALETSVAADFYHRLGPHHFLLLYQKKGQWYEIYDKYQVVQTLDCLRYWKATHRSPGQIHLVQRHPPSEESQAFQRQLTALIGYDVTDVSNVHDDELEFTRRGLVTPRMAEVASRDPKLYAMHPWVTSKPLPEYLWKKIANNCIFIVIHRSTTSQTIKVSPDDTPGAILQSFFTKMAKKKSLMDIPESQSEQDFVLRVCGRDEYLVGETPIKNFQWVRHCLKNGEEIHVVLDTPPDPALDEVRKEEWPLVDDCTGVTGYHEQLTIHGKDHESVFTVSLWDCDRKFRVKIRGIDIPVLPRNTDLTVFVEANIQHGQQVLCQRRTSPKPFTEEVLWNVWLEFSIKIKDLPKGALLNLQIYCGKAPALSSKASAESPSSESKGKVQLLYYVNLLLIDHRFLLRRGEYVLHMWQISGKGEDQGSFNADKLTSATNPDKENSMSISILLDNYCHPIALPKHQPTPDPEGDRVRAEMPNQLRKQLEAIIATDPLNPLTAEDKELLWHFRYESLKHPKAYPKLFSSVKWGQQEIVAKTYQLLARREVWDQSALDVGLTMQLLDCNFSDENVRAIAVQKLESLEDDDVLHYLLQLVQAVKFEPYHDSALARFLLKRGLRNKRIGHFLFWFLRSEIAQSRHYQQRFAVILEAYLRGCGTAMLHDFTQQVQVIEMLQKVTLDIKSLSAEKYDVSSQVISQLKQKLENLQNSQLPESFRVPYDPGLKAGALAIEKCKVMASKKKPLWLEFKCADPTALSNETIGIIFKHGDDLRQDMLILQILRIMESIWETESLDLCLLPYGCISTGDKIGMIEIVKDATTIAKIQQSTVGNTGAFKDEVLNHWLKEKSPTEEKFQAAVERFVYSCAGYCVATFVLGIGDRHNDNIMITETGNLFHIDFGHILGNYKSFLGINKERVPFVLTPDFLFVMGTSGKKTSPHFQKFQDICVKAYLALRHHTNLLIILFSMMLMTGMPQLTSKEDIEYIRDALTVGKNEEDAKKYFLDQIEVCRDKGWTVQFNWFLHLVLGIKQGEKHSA
Sequence of Kappa-type opioid receptor (Homo sapiens) (P41145 whole entry): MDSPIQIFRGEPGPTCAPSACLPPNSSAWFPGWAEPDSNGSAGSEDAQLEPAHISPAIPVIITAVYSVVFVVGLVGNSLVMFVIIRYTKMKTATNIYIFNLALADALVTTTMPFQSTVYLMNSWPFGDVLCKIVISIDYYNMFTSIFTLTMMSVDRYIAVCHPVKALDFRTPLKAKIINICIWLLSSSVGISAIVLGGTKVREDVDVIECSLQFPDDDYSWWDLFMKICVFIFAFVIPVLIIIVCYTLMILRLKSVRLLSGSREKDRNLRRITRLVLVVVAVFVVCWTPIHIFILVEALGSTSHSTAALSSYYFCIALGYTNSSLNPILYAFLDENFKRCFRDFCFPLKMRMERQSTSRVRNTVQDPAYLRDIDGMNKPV
Sequence of 5-hydroxytryptamine receptor 7 (Homo sapiens) (P34969 whole entry): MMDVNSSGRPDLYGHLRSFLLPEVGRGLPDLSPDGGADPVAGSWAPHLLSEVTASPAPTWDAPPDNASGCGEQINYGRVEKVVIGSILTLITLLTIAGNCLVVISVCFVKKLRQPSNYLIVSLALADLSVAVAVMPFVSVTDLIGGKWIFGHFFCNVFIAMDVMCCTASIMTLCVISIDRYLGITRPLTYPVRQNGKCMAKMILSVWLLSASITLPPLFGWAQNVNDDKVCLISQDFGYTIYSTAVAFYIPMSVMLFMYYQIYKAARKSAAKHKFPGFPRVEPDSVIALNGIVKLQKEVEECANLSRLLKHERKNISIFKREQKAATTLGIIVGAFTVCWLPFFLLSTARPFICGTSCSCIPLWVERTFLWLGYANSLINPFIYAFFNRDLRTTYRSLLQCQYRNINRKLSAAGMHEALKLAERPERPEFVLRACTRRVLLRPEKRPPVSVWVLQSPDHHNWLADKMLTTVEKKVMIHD
Sequence of Death-associated protein kinase 3 (Homo sapiens) (O43293 whole entry, looked up): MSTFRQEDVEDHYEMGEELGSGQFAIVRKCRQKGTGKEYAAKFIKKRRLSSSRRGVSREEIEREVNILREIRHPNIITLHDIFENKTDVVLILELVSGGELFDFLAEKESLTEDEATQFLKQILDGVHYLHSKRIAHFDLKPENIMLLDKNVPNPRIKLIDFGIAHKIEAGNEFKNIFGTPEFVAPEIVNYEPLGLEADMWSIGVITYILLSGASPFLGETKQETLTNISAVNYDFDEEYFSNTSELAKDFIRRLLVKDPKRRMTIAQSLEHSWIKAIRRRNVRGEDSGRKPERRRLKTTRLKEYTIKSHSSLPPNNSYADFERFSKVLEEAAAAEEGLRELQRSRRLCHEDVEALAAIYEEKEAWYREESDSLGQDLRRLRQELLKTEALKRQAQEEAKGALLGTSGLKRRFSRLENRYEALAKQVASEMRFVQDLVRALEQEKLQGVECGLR
Sequence of Interleukin-1 receptor-associated kinase 4 (Homo sapiens) (Q9NWZ3 whole entry): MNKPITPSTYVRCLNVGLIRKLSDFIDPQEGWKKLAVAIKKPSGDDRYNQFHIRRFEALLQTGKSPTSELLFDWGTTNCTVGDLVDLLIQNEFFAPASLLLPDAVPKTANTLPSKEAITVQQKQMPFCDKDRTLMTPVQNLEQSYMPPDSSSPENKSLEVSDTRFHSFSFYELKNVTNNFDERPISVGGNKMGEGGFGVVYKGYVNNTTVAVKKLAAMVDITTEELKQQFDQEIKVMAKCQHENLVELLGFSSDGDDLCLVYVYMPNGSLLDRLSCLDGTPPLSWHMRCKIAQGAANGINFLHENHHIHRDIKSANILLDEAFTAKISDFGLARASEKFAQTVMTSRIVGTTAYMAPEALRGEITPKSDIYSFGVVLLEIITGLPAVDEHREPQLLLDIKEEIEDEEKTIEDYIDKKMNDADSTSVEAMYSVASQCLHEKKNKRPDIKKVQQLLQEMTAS
Sequence of MAP kinase-interacting serine/threonine-protein kinase 2 (Homo sapiens) (Q9HBH9 whole entry, looked up, canonical isoform): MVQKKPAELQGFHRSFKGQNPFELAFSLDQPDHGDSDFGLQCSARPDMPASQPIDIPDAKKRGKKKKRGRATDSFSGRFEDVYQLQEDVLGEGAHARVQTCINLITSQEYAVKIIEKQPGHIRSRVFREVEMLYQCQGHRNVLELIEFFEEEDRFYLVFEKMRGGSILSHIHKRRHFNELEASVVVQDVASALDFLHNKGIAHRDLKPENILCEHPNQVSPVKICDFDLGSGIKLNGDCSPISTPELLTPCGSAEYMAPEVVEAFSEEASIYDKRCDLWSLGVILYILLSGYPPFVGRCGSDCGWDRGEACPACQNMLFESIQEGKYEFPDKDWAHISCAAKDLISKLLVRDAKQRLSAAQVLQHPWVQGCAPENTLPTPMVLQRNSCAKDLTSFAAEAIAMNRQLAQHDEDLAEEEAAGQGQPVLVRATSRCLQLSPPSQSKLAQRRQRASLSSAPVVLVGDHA
Sequence of Serine/threonine-protein kinase pim-1 (Homo sapiens) (P11309 whole entry, looked up): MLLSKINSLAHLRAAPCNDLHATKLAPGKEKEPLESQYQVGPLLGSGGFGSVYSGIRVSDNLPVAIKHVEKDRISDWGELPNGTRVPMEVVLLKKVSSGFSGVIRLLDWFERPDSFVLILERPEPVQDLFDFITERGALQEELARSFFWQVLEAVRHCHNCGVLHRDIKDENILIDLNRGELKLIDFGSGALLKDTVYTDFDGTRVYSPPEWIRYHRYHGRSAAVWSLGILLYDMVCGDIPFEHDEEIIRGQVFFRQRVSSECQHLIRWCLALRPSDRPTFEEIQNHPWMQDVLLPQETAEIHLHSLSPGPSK

Structure (SMILES)	residual activity [1] [%]	residual activity [2] [%]	residual activity [3] [%]	residual activity [4] [%]	residual activity [5] [%]	residual activity [6] [%]	residual activity [7] [%]	residual activity [8] [%]	residual activity [9] [%]	residual activity [10] [%]	residual activity [11] [%]	residual activity [12] [%]	residual activity [13] [%]	residual activity [14] [%]	residual activity [15] [%]	residual activity [16] [%]	residual activity [17] [%]	residual activity [18] [%]	residual activity [19] [%]	residual activity [20] [%]	other results
C[C@@H](c1cccc(C#N)c1)n1cc(Cl)cc(C(N)=O)c1=N [(S)-9s]	0	100	93	98	100	100	100	100	100	100	100	100	100	100	89	100	100	87	100	80	residual activity [21]: 100%; residual activity [22]: 100%; residual activity [23]: 100%; residual activity [24]: 100%; residual activity [25]: 98%; residual activity [26]: 100%; residual activity [27]: 57%; residual activity [28]: 93%; residual activity [29]: 82%; residual activity [30]: 100%; residual activity [31]: 100%; residual activity [32]: 74%; inhibition [33]: 4.17%; inhibition [34]: -4.73%; inhibition [35]: 1.2%; inhibition [36]: 8.14%; inhibition [37]: 3.93%
C[C@H](c1cccc(C#N)c1)n1cc(Cl)cc(C(N)=O)c1=N [(R)-9s]	100	100	75	97	100	100	100	100	100	87	97	100	100	87	80	89	97	82	79	84	residual activity [21]: 100%; residual activity [22]: 100%; residual activity [23]: 98%; residual activity [24]: 100%; residual activity [25]: 100%; residual activity [26]: 100%; residual activity [27]: 71%; residual activity [28]: 92%; residual activity [29]: 91%; residual activity [30]: 77%; residual activity [31]: 100%; residual activity [32]: 86%; inhibition [33]: -7.43%; inhibition [34]: -7.01%; inhibition [35]: -0.22%; inhibition [36]: 1.07%; inhibition [37]: 42.7%
